Patent publication US4557930A, “Anticholesteremic anion exchange resins” (Mitsubishi Petrochemical Co., Ltd., priority 1983, dated 1985)

System: descending aorta; plasma lipids
Experiment: In vivo test by rabbit (arteriosclerosis inhibition test): plasma lipids and aorta
Design: species or system rabbit (New Zealand)
Description: Eight to fourteen male New Zealand species rabbits, weighing about 2.2 Kg, were used per each group. To the first group of rabbits was given 40 g/Kg-body weight/day of a mixture of a feed produced by Oriental Yeast Co. mixed with 0.67% of cholesterol for 12 weeks, and to the rabbits of the second and third groups were further given CR - 1 and Clofibrate, respectively.
CR - 1 and Clofibrate employed was mixed in the feed at levels of 1.25% and 0.25%, respectively.
During the tests, the plasma lipid concentrations were measured, and after 12 weeks, all the rabbits were sacrificed by bleeding. Descending aorta were subjected to incision and the conditions of arteriosclerosis were observed.

[1] = 0.67% cholesterol intake, 6 weeks, CR - 1 1.25%, Clofibrate 0.25% in feed
[2] = 0.67% cholesterol intake, 12 weeks, CR - 1 1.25%, Clofibrate 0.25% in feed

## CCOC(=O)C(C)(C)Oc1ccc(Cl)cc1 [Clofibrate]
[1]
  Total plasma: Cholesterol: 1810 ± 124 mg/dL
  Total plasma: Triglyceride: 337.1 ± 66.1 mg/dL
  Total plasma: β-Lipoprotein: 5038 ± 450 mg/dL
[2]
  Aorta: Area of blood vessel at arteriosclerosis: 8.0 ± 1.4 cm^2
  Aorta: Inhibition of arteriosclerosis: 18.0%
  Aorta: Total area: 17.7 ± 0.5 cm^2
  Total plasma: Cholesterol: 1895 ± 117 mg/dL
  Total plasma: Triglyceride: 336.8 ± 39.7 mg/dL
  Total plasma: β-Lipoprotein: 4385 ± 574 mg/dL
(Area at arteriosclerosis)/(Total blood vessel area) × 100, 0.67% cholesterol intake, 12 weeks
  Aorta: Percentage of arteriosclerosis: 44.2 ± 7.0%
